Reference: ChEMBL document CHEMBL2057121, “Selective non-lipid modulator of LPA5 activity in human platelets” (Bioorg Med Chem Lett, 2012)

Assays:
[1] = molecular target: Lysophosphatidic acid receptor 1/3 (Homo sapiens, UniProt Q9UBY5+Q92633); test: Antagonist activity at LPA1/3 receptor in human isolated platelets assessed as inhibition of collagen-induced platelet aggregation after 3 mins; format: functional
[2] = molecular target: Lysophosphatidic acid receptor 5 (Homo sapiens, UniProt Q9H1C0); test: Antagonist activity at human recombinant LPA5 receptor expressed in rat RH7777 cells assessed as inhibition of hexadecyl-LPA-induced effect; format: functional, cell-based
Lysophosphatidic acid receptor 5, sequence (Q9H1C0 whole entry): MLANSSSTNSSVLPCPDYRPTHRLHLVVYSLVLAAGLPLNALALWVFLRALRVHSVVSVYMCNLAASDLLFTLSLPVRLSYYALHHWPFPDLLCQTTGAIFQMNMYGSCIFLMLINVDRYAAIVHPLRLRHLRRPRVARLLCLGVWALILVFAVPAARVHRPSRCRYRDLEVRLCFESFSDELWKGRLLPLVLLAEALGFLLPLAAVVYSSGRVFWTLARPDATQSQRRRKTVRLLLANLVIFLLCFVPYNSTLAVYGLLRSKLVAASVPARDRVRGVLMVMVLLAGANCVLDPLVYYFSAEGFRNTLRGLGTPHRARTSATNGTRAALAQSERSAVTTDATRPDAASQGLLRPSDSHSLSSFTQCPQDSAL

IC50 [1]: > 10000 nM | IC50 [2]: 800 nM
Compound: COc1cccc(-n2nc(C(=O)O)cc2-c2ccc(C3CCCCC3)c(Cl)c2)c1
